Data reported in US11787847B2, “Method of identifying malodor modulating compounds” (FIRMENICH SA, priority 2017, dated 2023).

Key:
[1] = tested on: mouse receptors Olfr1193, Olfr1093, Olfr1097, Olfr166, Olfr169, Olfr738, Olfr742 and human odorant receptor OR4S2; assay: cAMP HTRF dose-response assay, DMTS/DMDS response profiles (Example 5); assay type: cell-based; conditions: increasing concentration of compound; relative to butyric acid control
Description: (§1) Functional dose-response experiments were performed to evaluate the level of DMTS activity of the modified cell line expressing individual putative DMTS receptors. Using a cell-based assay, mouse receptor Olfr1193, Olfr1093, Olfr1097, Olrf166, Olfr169, Olfr738 and Olfr742, and human receptor OR4S2 and OR52N5 were tested in an HEK293T cell line wherein the endogenous RTP1 gene has been activated and the odorant receptor chaperone protein was expressed (described in WO2016/201153). The mouse receptor genes were tagged with a Lucy-FLAG®-Rho tag combination and the human receptors were tagged with a Rho-FLAG® tag combination resulting in a tag:receptor fusion protein for the cell based assay. Receptor genes were co-transfected with the canonical olfactory human G-protein alpha subunit Golf gene and were exposed to increasing concentrations of the malodor odorant. Co-expression of the human Golf activates the Gs transduction pathway that leads to an internal cAMP increase upon binding to the appropriate ligand. Odorant-induced activity was detected by measuring the cAMP increase in the cytosol using an Homogeneous Time Resolved Fluorescence (HTRF) based kit (CisBio, cAMP dynamic 2 kit, cat. 62AM4PEJ). […]

[2] = tested on: cells that do not express the odorant receptors (HEK293T); assay: Mock transfection control experiment (Example 5); assay type: cell-based
Description: as §1

[3] = biological target: T1, mouse receptor Olfr1097 (Mus musculus, UniProt Q8VGA2); assay: cell-based dose-response, cAMP increase by HTRF, HEK293T cells (endogenous RTP1 activated) co-transfected with human Golf, Lucy-FLAG-Rho tagged receptor
T1 construct: cAMP HTRF
T1 sequence (Q8VGA2 1-315): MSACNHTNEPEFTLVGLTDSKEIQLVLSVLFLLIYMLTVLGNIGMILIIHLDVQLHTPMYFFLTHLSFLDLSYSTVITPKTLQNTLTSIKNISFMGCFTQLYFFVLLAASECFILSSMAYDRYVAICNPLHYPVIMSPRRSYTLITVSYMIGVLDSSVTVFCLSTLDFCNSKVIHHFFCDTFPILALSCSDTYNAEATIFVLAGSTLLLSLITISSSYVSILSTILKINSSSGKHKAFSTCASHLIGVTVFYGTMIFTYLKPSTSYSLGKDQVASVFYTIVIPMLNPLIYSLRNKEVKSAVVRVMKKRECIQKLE

[4] = tested on: mouse receptor Olfr1193, Olfr1093, Olfr1097, Olrf166, Olfr169, Olfr738 and Olfr742, and human receptor OR4S2 and OR52N5; assay: cAMP HTRF dose-response assay in HEK293T cells expressing odorant receptors (Example 2); assay type: cell-based; conditions: increasing concentrations of odorant, receptors co-transfected with human Golf
[5] = tested on: human receptors OR2L13, OR4C15, OR5AC2, OR8H3, OR11G2 or OR52N2; assay: Ca2+ (Calcium 5 dye, FLIPR) dose-response assay in stable HEK293T cell lines (Example 3); assay type: cell-based; conditions: increasing concentrations of DMTS, co-expressed Galpha15
Description: Functional dose-response experiments were performed to evaluate the level of DMTS activity of the modified cell lines expressing individual putative DMTS receptors. A cell line stably expressing a human receptor was generated in a HEK293T cell line for each of the following human receptors: OR2L13, OR4C15, OR5AC2, OR8H3, OR11G2 or OR52N2. The receptors were tagged with a FLAG®-Rho tag combination and stably co-expressed with the human G-protein alpha subunit Gals for the cell based assay. Co-expression of the human Gals activates the Gq transduction pathway that leads to an internal Ca^2+ increase upon binding to the appropriate ligand. Receptors were exposed to increasing concentrations of DMTS. Odorant-induced activity was detected by measuring the Ca^2+ increase in the cytosol using a calcium sensitive fluorescent dye (Molecular Devices, Calcium 5 dye, cat. R8186) and measuring the change in Relative Fluorescence Ratio (RFU) using a fluorometric imaging plate reader (Molecular Devices, FLIPR) following odorant exposure. […] A cell line lacking a receptor was used as a control for non-specific activity at high compound concentrations (‘No receptor’). The activity levels are reported by the potency of the DMTS induced-response for each receptor as a measure of the EC50 value.

[6] = biological target: T2, human receptor OR52N5 (Homo sapiens, UniProt Q8NH56); assay: cell-based dose-response, cAMP increase by HTRF, HEK293T cells (endogenous RTP1 activated) co-transfected with human Golf, Rho-FLAG tagged receptor; conditions: FIG. 2, Example 2, SEQ ID NO: 24
T2 construct: the human receptors were tagged with a Rho-FLAG® tag combination; expressed in transfected cells
T2 sequence (Q8NH56 1-324): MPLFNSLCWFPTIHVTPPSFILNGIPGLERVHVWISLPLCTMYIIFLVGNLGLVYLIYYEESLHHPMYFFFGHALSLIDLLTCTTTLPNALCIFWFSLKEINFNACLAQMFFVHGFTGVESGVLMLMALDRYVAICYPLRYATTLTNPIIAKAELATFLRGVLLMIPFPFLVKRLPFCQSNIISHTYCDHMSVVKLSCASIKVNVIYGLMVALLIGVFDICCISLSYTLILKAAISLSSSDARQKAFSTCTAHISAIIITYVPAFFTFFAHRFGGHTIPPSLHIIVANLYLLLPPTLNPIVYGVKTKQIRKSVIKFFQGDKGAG
Description: as §1

CSSSC [DMTS, dimethyl trisulfide]
receptor activity (cAMP increase) [1]: strong dose-dependent increase of the receptor activity | activity upon exposure in mock transfected cells [2]: did not show activity | EC50 ([3]; FIG. 2, Example 2, SEQ ID NO: 6): 17 µM | EC50 ([3]; FIG. 5, Example 5, SEQ ID NO: 6): 18 µM | receptor activity (cAMP increase in the cytosol) [4]: dose-dependent increase of the receptor activity | receptor activity (Ca2+ increase in the cytosol, RFU) [5]: dose-dependent increase of receptor activity | EC50 [6]: 10 µM
